Reference: patent US20250002487A1, “HETEROCYCLIC COMPOUNDS AND USES THEREOF” (Ventus Therapeutics U.S., Inc., priority 2021, published 2025)

Target: human-cGAS (h-cGAS) (Homo sapiens, UniProt Q8N884)
Test: hcGAS Kinase-Glo Assay
Type: biochemical
Conditions: 40 nM h-cGAS, 100 μM ATP, 100 μM GTP, 25 nM dsDNA, 3 h incubation, read-out: hcGAS potency IC50
Experimental: In some embodiments, the compounds of the instant disclosure may be tested for their human-cGAS (h-cGAS) inhibition activity using the methodology reported in Lama et al., “Development of human cGAS-specific small molecule inhibitors for repression of double stranded DNA (dsDNA)-triggered interferon expression”, Nature Communications 10, Article number: 2261 (2019), incorporated herein by reference. hcGAS Kinase-Glo Assay Compounds were tested for their human-cGAS (h-cGAS) inhibition activity using the methodology reported in Lama et al., “Development of human cGAS-specific small molecule inhibitors for repression of double stranded DNA (dsDNA)-triggered interferon expression”, Nature Communications 10. Article number: 2261 (2019), which is herein incorporated by reference in its entirety, with slight changes to some conditions as shown in Table B. The results of the assays, expressed in IC50 ranges are reported in Table C with the following designations: A represents an IC50 value <0.1 μM; B represents an IC50 value ≥0.1 μM and <0.5 μM; C represents an IC50 value ≥0.5 μM and <1.0 μM; D represents an IC50 value ≥1.0 μM. [table]

Sequence of human-cGAS (h-cGAS) (Q8N884 whole entry): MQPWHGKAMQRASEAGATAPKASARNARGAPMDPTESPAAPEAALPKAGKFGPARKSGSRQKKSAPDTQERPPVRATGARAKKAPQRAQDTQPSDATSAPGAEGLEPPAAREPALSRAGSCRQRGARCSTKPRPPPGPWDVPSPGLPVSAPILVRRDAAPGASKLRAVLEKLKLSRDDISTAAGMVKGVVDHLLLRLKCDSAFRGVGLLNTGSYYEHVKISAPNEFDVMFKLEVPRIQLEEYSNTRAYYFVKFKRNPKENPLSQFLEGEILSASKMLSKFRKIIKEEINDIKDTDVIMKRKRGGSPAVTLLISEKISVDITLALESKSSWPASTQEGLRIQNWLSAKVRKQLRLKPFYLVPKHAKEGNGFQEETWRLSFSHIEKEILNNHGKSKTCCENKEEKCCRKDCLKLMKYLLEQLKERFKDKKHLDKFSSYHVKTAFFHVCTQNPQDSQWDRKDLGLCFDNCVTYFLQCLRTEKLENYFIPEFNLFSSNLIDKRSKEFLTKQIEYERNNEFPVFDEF

Row | IC50 [nM] | Compound
1 | 100 to 500 | O=C(Nc1nnc(-c2ccccc2Cl)s1)c1cc(C2CCOCC2)no1 [Compound 38, N-(5-(2-chlorophenyl)-1,3,4-thiadiazol-2-yl)-3-(tetrahydro-2H-pyran-4-yl)isoxazole-5-carboxamide]
2 | 500 to 1000 | CSc1nnc(NC(=O)c2cc(-c3cccc(C)c3)no2)s1 [Compound 219, 3-(3-methylphenyl)-N-[5-(methylsulfanyl)-1,3,4-thiadiazol-2-yl]-1,2-oxazole-5-carboxamide]
3 | ≥ 1000 | CNc1nnc(NC(=O)c2onc3c2ccc2cccnc23)s1 [Compound 280, N-(5-(methylamino)-1,3,4-thiadiazol-2-yl)isoxazolo[4,3-h]quinoline-3-carboxamide]
4 | ≥ 1000 | CSc1nnc(NC(=O)c2onc3cc(C(=O)N(C)C)ccc23)s1 [Compound 192, N^6,N^6-dimethyl-N^3-(5-(methylthio)-1,3,4-thiadiazol-2-yl)benzo[c]isoxazole-3,6-dicarboxamide]
5 | 100 to 500 | CCc1nnc(NC(=O)c2onc3c2ccc2cccnc23)s1 [Compound 197, N-(5-ethyl-1,3,4-thiadiazol-2-yl)isoxazolo[4,3-h]quinoline-3-carboxamide]
6 | 100 to 500 | CSc1nnc(NC(=O)c2cc(-c3cccc(F)c3)cc(=O)o2)s1 [Compound 238, 4-(3-fluorophenyl)-N-(5-methylsulfanyl-1,3,4-thiadiazol-2-yl)-6-oxo-pyran-2-carboxamide]
7 | ≥ 1000 | CSc1nnc(NC(=O)c2onc3ccc(C(=O)c4ccccc4)cc23)s1 [Compound 167, 5-benzoyl-N-(5-(methylthio)-1,3,4-thiadiazol-2-yl)benzo[c]isoxazole-3-carboxamide]
8 | ≥ 1000 | CCSc1nnc(NC(=O)c2onc3ccccc23)s1 [Compound 70, N-(5-(ethylthio)-1,3,4-thiadiazol-2-yl)benzo[c]isoxazole-3-carboxamide]
9 | 500 to 1000 | CSc1nnc(NC(=O)c2cc(-c3nccs3)no2)s1 [Compound 142, N-(5-(methylthio)-1,3,4-thiadiazol-2-yl)-3-(thiazol-2-yl)isoxazole-5-carboxamide]
10 | ≥ 1000 | CSc1nnc(NC(=O)c2onc3ccc(Sc4ccccc4)cc23)s1 [Compound 163, N-(5-(methylthio)-1,3,4-thiadiazol-2-yl)-5-(phenylthio)benzo[c]isoxazole-3-carboxamide]
11 | ≥ 1000 | CSc1nnc(NC(=O)c2noc(N3CCCCC3)n2)s1 [Compound 101, N-[5-(methylthio)-1,3,4-thiadiazol-2-yl]-5-(piperidin-1-yl)-1,2,4-oxadiazole-3-carboxamide]
12 | 500 to 1000 | CSc1nnc(NC(=O)c2cc(-c3cccc(F)c3F)no2)s1 [Compound 151, 3-(2,3-Difluorophenyl)-N-(5-(methylthio)-1,3,4-thiadiazol-2-yl)isoxazole-5-carboxamide]
13 | ≥ 1000 | O=C(Nc1nnc(-c2ccccc2Cl)s1)c1ccnc(=O)[nH]1 [Compound 62, N-(5-(2-chlorophenyl)-1,3,4-thiadiazol-2-yl)-2-oxo-2,3-dihydropyrimidine-4-carboxamide]
14 | 500 to 1000 | CSc1nnc(NC(=O)c2cc(C3CC3)no2)s1 [Compound 17, 3-cyclopropyl-N-(5-(methylthio)-1,3,4-thiadiazol-2-yl)isoxazole-5-carboxamide]
15 | 500 to 1000 | O=C(Nc1nnc(-c2ccccc2Cl)s1)c1c[nH]nn1 [Compound 59, N-(5-(2-chlorophenyl)-1,3,4-thiadiazol-2-yl)-1H-1,2,3-triazole-4-carboxamide]
16 | ≥ 1000 | CSc1nnc(NC(=O)c2cc(-c3cccc(C#N)c3)no2)s1 [Compound 214, 3-(3-cyanophenyl)-N-[5-(methylsulfanyl)-1,3,4-thiadiazol-2-yl]-1,2-oxazole-5-carboxamide]
17 | ≥ 1000 | CSc1nnc(NC(=O)c2nnn3c2ccc2ccccc23)s1 [Compound 190, N-(5-(methylthio)-1,3,4-thiadiazol-2-yl)-[1,2,3]triazolo[1,5-a]quinoline-3-carboxamide]
